Consider nine compounds from ChEMBL document CHEMBL1781982, “Evaluation of antioxidant and antimicrobial activities of Bergenin and its derivatives obtained by chemoenzymatic synthesis” (Eur J Med Chem, 2011).

Active and inactive are the calls of the source. No cut-off for these calls is given here.

In data set [1] the target is Xanthine dehydrogenase/oxidase (Homo sapiens, UniProt P47989). Nature of the data set: Inhibition of xanthine oxidase assessed as reduction of uric acid production from xanthine at 10 to 50 uM preincubated for 15 mins measured after 30 mins by spectrophotometry. Particulars: 0.5 h.
Chain of Xanthine dehydrogenase/oxidase (P47989 whole entry): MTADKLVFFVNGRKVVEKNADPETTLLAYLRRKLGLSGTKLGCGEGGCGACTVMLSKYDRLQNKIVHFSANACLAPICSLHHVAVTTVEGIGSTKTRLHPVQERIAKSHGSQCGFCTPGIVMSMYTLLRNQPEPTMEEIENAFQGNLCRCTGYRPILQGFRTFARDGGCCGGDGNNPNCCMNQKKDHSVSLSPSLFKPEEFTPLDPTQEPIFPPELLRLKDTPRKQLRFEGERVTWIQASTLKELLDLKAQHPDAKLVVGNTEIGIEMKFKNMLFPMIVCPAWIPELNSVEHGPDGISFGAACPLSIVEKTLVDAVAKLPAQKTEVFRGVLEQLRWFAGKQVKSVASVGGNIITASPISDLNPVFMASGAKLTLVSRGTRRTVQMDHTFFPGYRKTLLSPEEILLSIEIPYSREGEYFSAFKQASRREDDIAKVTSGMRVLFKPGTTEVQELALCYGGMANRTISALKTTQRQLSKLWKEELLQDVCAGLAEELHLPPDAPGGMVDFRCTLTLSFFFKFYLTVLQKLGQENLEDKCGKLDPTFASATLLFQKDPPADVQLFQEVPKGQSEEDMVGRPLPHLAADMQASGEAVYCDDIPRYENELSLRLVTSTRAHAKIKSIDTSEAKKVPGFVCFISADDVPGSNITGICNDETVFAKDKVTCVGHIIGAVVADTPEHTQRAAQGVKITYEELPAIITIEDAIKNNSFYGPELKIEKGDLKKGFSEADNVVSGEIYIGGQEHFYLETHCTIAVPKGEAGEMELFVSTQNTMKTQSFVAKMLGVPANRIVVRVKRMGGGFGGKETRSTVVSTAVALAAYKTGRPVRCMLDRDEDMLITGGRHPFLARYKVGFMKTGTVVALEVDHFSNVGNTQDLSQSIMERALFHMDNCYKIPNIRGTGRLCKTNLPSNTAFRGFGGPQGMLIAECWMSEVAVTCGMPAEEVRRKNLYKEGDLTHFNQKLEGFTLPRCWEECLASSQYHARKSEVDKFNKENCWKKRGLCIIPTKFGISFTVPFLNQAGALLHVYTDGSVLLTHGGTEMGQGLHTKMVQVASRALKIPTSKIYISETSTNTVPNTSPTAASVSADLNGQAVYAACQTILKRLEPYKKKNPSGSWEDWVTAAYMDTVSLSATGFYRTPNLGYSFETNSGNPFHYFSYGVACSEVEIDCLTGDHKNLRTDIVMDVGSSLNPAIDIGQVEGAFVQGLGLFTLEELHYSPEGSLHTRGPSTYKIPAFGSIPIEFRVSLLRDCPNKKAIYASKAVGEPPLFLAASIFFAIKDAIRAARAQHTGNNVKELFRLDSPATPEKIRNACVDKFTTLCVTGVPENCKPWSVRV
The subject of data set [2] is Radical scavenging activity. Nature of the data set: Antioxidant activity assessed as DPPH free radical scavenging activity at 200 to 1000 uM after 5 mins. Type of data set: functional. A general note: The DPPH test is a chemical assay of radical scavenging.
Data set [3] concerns Staphylococcus aureus. The experiment in a line: Antibacterial activity against Staphylococcus aureus MTCC 2940 at 2000 ug/ml after 24 hrs by agar-well diffusion method. The data set is classed as functional. Particulars: MTCC 2940, 24 h, read-out: DIZ.
Data set [4] deals with Klebsiella pneumoniae. The experiment in a line: Antibacterial activity against Klebsiella pneumoniae MTCC 139 at 2000 ug/ml after 24 hrs by agar-well diffusion method. The data set is classed as functional. Particulars: MTCC 139, 24 h, read-out: DIZ. For orientation: A growth-free zone around the sample is the usual read-out of agar diffusion tests.
The test system of data set [5] is Escherichia coli. The experiment in a line: Antibacterial activity against Escherichia coli MTCC 739 at 2000 ug/ml after 24 hrs by agar-well diffusion method. The data set is classed as functional. The conditions noted are these: MTCC 739, 24 h, read-out: DIZ.
Data set [6] has as its system Bacillus subtilis. The experiment in a line: Antibacterial activity against Bacillus subtilis MTCC 441 at 2000 ug/ml after 24 hrs by agar-well diffusion method. The conditions noted are these: MTCC 441, 24 h, read-out: DIZ. The data set is classed as functional.
Data set [7] has as its system Staphylococcus aureus. The experiment in a line: Antibacterial activity against Staphylococcus aureus MTCC 2940 at 30 ug/disc after 24 hrs. Type of data set: functional. Particulars: MTCC 2940, 24 h, read-out: DIZ.
Data set [8] concerns Klebsiella pneumoniae. Nature of the data set: Antibacterial activity against Klebsiella pneumoniae MTCC 139 at 30 ug/disc after 24 hrs. Type of data set: functional. Particulars: MTCC 139, 24 h, read-out: DIZ.
Data set [9] relates to Escherichia coli. Nature of the data set: Antibacterial activity against Escherichia coli MTCC 739 at 30 ug/disc after 24 hrs. Type of data set: functional. Particulars: MTCC 739, 24 h, read-out: DIZ.
Data set [10] deals with Bacillus subtilis. Nature of the data set: Antibacterial activity against Bacillus subtilis MTCC 441 at 30 ug/disc after 24 hrs. Particulars: MTCC 441, 24 h, read-out: DIZ. Type of data set: functional.

On to `CCCCCC(=O)Oc1cc2c(c(OC(C)=O)c1OC)[C@@H]1O[C@H](COC(C)=O)[C@@H](OC(C)=O)[C@H](OC(C)=O)[C@H]1OC2=O`, for which the “inhibition (INH)” value in data set [1] is listed as “Not Active”. Besides, the result in data set [2] was Active. Further, the zone of inhibition at 2000 µg/mL with Staphylococcus aureus [3] was 6.4 mm; in the data set with Klebsiella pneumoniae [4] it was 5.4 mm; in the data set with Escherichia coli [5], 21.4 mm; in the data set with Bacillus subtilis [6] it was 7.4 mm.
On to `COc1c(OC(C)=O)cc2c(c1OC(C)=O)[C@@H]1O[C@H](COC(C)=O)[C@@H](OC(C)=O)[C@H](OC(C)=O)[C@H]1OC2=O` [BERGENIN PENTAACETATE], for which the result in [2] was Active. Also, the zone of inhibition at 2000 µg/mL was determined as 8.3 mm in the data set on Staphylococcus aureus [3], 5.1 mm in the data set with Klebsiella pneumoniae [4], 16.2 mm in the data set on Escherichia coli [5] and 5.2 mm with Bacillus subtilis [6].
In the case of `CCCCCCCCCC(=O)Oc1cc2c(c(OC(C)=O)c1OC)[C@@H]1O[C@H](COC(C)=O)[C@@H](OC(C)=O)[C@H](OC(C)=O)[C@H]1OC2=O`, the “inhibition (INH)” value in data set [1] was “Not Active”. Further, the outcome in data set [2] was Active. The zone of inhibition at 2000 µg/mL is 3.2 mm in the data set on Staphylococcus aureus [3], 4.2 mm in the data set on Klebsiella pneumoniae [4], 6.2 mm in the data set on Escherichia coli [5] and 3.9 mm with Bacillus subtilis [6].
Consider `COc1c(O)cc2c(c1O)[C@@H]1O[C@H](CO)[C@@H](O)[C@H](O)[C@H]1OC2=O` [BERGENIN], for which the “inhibition (INH)” value in data set [1] is reported as “Not Active”. In addition, the result in data set [2] was Active. The zone of inhibition at 2000 µg/mL was found to be 2.1 mm in the data set with Staphylococcus aureus [3], 2.5 mm in the data set on Klebsiella pneumoniae [4], 3.3 mm in the data set on Escherichia coli [5] and 1.3 mm with Bacillus subtilis [6].
Consider `COc1c(O)cc2c(c1OC(C)=O)[C@@H]1O[C@H](COC(C)=O)[C@@H](OC(C)=O)[C@H](OC(C)=O)[C@H]1OC2=O`, for which the result in [2] was Active. Further, the zone of inhibition at 2000 µg/mL in the data set with Staphylococcus aureus [3] worked out at 3.2 mm; in the data set on Klebsiella pneumoniae [4] it was 3.3 mm; in the data set on Escherichia coli [5], 14.1 mm; in the data set with Bacillus subtilis [6], 4.3 mm.
`CCCCCCCCCCCCCC(=O)Oc1cc2c(c(OC(C)=O)c1OC)[C@@H]1O[C@H](COC(C)=O)[C@@H](OC(C)=O)[C@H](OC(C)=O)[C@H]1OC2=O`: the “inhibition (INH)” value in data set [1] is “Not Active”. Moreover, the outcome in [2] was Active. In addition, the zone of inhibition at 2000 µg/mL is 2.4 mm with Staphylococcus aureus [3], 3.1 mm in the data set with Klebsiella pneumoniae [4], 5.4 mm with Escherichia coli [5] and 2.2 mm in the data set with Bacillus subtilis [6].
Take `O=c1c(O)c(-c2ccc(O)c(O)c2)oc2cc(O)cc(O)c12` [QUERCETIN]: in [1], the “inhibition (INH)” value is “Active”.
`COc1c(OC(=O)c2ccccc2)cc2c(c1OC(C)=O)[C@@H]1O[C@H](COC(C)=O)[C@@H](OC(C)=O)[C@H](OC(C)=O)[C@H]1OC2=O`: the “inhibition (INH)” value in [1] is “Not Active”. In addition, the outcome in [2] was Active. Also, the zone of inhibition at 2000 µg/mL came to 5.5 mm in the data set on Staphylococcus aureus [3], 6.3 mm in the data set on Klebsiella pneumoniae [4], 9.3 mm in the data set on Escherichia coli [5] and 4.3 mm in the data set with Bacillus subtilis [6].
As for `NC[C@H]1O[C@H](O[C@H]2[C@H](O)[C@@H](O[C@H]3O[C@H](CO)[C@@H](O)[C@H](N)[C@H]3O)[C@H](N)C[C@@H]2N)[C@H](O)[C@@H](O)[C@@H]1O` [KANAMYCIN], the zone of inhibition at 30 µg/disc stood at 25.1 mm in the data set with Staphylococcus aureus [7], 19.5 mm with Klebsiella pneumoniae [8], 18 mm with Escherichia coli [9] and 23.2 mm in the data set on Bacillus subtilis [10].
